Assay results from BindingDB's records for doi:10.1016/j.bmc.2015.07.027 (Ocean University of China, 2015).

Experiment: Modulation of P-gp (unknown origin) transfected in human MDA435/LCC6MDR cells assessed as paclitaxel IC50 for cell growth inhibition at 1 uM after 5 days by MTS assay

Point of comparison: `COc1ccc(C2=C(c3ccc(OC)c(OC)c3)C(=O)N(C(=O)Nc3ccc4c(c3)C(=O)OC4)C2=O)cc1OC`, IC50 126 nM. Against it:
- COc1ccc(C2=C(c3ccc(OC)c(OC)c3)C(=O)N(C(=O)N3CCN(CC(=O)c4ccc(OCc5ccccc5)c(OC)c4)CC3)C2=O)cc1OC — 4.8-fold lower, 26 nM
- COc1ccc(C2=C(c3ccc(OC)c(OC)c3)C(=O)N(C(=O)N3CCN(CC(=O)c4ccc(S(C)(=O)=O)cc4)CC3)C2=O)cc1OC — within 1.5-fold, 136 nM
- CCCCC1OC(=O)c2cc(NC(=O)N3C(=O)C(c4ccc(OC)c(OC)c4)=C(c4ccc(OC)c(OC)c4)C3=O)ccc21 (centres undefined) — 2.2-fold lower, 58 nM
